# In BindingDB's records for doi:10.7270/Q2DF6PMF (Nmmlsc, 2007):
# Structures can show the parent of a compound that is named as a salt.
# Target: T1, N-formyl peptide receptor 2 (Homo sapiens, UniProt P25090)
# T1 sequence (P25090 whole entry): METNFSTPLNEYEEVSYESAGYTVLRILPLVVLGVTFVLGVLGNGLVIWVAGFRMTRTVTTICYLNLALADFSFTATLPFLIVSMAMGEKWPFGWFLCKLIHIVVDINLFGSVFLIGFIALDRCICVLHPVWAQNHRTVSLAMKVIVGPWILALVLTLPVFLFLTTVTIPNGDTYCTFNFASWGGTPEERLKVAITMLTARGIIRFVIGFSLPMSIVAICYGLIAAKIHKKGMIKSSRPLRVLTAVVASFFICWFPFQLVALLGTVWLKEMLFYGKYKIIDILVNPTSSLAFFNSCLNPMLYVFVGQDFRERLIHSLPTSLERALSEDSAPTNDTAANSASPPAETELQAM
# Test: FPRL1 binding inhibitor potency, dose response, cell-based, FPR counter-screen, fluorescent ligand (AID 520)
# Conditions: not given
Compound,IC50,Ki
"Cc1ccc(C)c(-n2c(CNC(=O)c3ccco3)nnc2SCC(=O)N2CCc3ccccc32)c1 [N-[[5-[2-(2,3-dihydroindol-1-yl)-2-oxoethyl]sulfanyl-4-(2,5-dimethylphenyl)-1,2,4-triazol-3-yl]methyl]furan-2-carboxamide]",> 66.7 µM,–
"COc1cc2c3c(c1)/C(=C1/SC(NC(C)=O)=NC1=O)C(=O)N3C(C)(C)C=C2C [N-[5-(8-methoxy-4,4,6-trimethyl-2-oxo-4H-pyrrolo[3,2,1-ij]quinolin-1(2H)-ylidene)-4-oxo-4,5-dihydro-1,3-thiazol-2-yl]acetamide]",> 66.7 µM,–
O=C(O)C1CCCCC1C(=O)Nc1ccccc1Cl (centres undefined) [2-[(2-chloroanilino)-oxomethyl]-1-cyclohexanecarboxylic acid],> 66.7 µM,–
"CCCCCNC(=O)c1ccc2c(=O)[nH]c3c(C(=O)NCC4CCCO4)sc(=S)n3c2c1 (centres undefined) [5-oxo-N3-(2-oxolanylmethyl)-N8-pentyl-1-sulfanylidene-4H-thiazolo[3,4-a]quinazoline-3,8-dicarboxamide]",> 66.7 µM,–
"Cc1cc(NC(=O)CSc2nnc(Cn3c(=O)sc4ccccc43)n2-c2ccccc2C)no1 [N-(5-methyl-3-isoxazolyl)-2-[[4-(2-methylphenyl)-5-[(2-oxo-1,3-benzothiazol-3-yl)methyl]-1,2,4-triazol-3-yl]thio]acetamide]",> 66.7 µM,–
"Cc1ccc(C2C(C(=O)c3ccc(Cl)cc3)C(=O)C(=O)N2CC2CCCO2)o1 (centres undefined) [(4Z)-4-[(4-chlorophenyl)-hydroxy-methylene]-5-(5-methyl-2-furyl)-1-(tetrahydrofurfuryl)pyrrolidine-2,3-quinone]",> 66.7 µM,> 40.3 µM
Cc1ccc(Nc2nc(C3CC3)cs2)cc1 [(4-cyclopropylthiazol-2-yl)-(p-tolyl)amine],> 66.7 µM,–
C=CCOc1cccc(C2C(C(=O)c3ccco3)C(=O)C(=O)N2CCN2CCOCC2)c1 (centres undefined) [3-(furan-2-carbonyl)-4-hydroxy-1-(2-morpholin-4-ylethyl)-2-(3-prop-2-enoxyphenyl)-2H-pyrrol-5-one],> 66.7 µM,> 40.3 µM
CCN1C(=O)/C(=C2\SC(=S)N(CCCOC)C2=O)c2ccccc21 [(5Z)-5-(1-ethyl-2-keto-indolin-3-ylidene)-3-(3-methoxypropyl)-2-thioxo-thiazolidin-4-one],> 66.7 µM,–
COCCCN1C(=O)C(=O)C(C(=O)c2ccco2)C1c1ccc(Br)cc1 (centres undefined) [2-(4-bromophenyl)-3-(furan-2-carbonyl)-4-hydroxy-1-(3-methoxypropyl)-2H-pyrrol-5-one],> 66.7 µM,> 40.3 µM
"COc1ccccc1C1C(C(=O)c2ccccc2)C(=O)C(=O)N1CC(C)O (centres undefined) [(4Z)-4-[hydroxy(phenyl)methylene]-1-(2-hydroxypropyl)-5-(2-methoxyphenyl)pyrrolidine-2,3-quinone]",> 66.7 µM,> 40.3 µM
CCOC(=O)c1oc2cc(O)ccc2c(=O)c1-c1ccccc1OC,> 66.7 µM,–
"CC1Cc2cc(C(=O)C3C(=O)C(=O)N(CCN4CCOCC4)C3c3ccccc3F)ccc2O1 (centres undefined) [(4E)-5-(2-fluorophenyl)-4-[(2-methyl-2,3-dihydro-1-benzofuran-5-yl)-oxidanyl-methylidene]-1-(2-morpholin-4-ylethyl)pyrrolidine-2,3-dione]",> 66.7 µM,> 40.3 µM
COCCCN1C(=O)C(=O)C(C(=O)c2ccco2)C1c1ccccc1 (centres undefined) [3-(furan-2-carbonyl)-4-hydroxy-1-(3-methoxypropyl)-2-phenyl-2H-pyrrol-5-one],> 66.7 µM,> 40.3 µM
COc1cc(C2C(C(=O)c3ccc(C)o3)C(=O)C(=O)N2Cc2cccnc2)ccc1O (centres undefined) [2-(3-methoxy-4-oxidanyl-phenyl)-3-(5-methylfuran-2-yl)carbonyl-4-oxidanyl-1-(pyridin-3-ylmethyl)-2H-pyrrol-5-one],> 66.7 µM,> 40.3 µM
"Cc1csc(NC(=O)CCn2c(=O)oc3ccccc32)n1 [3-(2-keto-1,3-benzoxazol-3-yl)-N-(4-methylthiazol-2-yl)propionamide]",> 66.7 µM,–
"COc1ccc(-c2cc(C(F)(F)F)nc(N3CCN(Cc4ccccc4)CC3)n2)cc1OC [2-(4-benzylpiperazin-1-yl)-4-(3,4-dimethoxyphenyl)-6-(trifluoromethyl)pyrimidine]",12.1 µM,–
"CCc1nnc(NC(=O)CSc2nnc(-c3cc4ccccc4cc3O)n2CC)s1 [2-[4-Ethyl-5-(3-hydroxy-naphthalen-2-yl)-4H-[1,2,4]triazol-3-ylsulfanyl]-N-(5-ethyl-[1,3,4]thiadiazol-2-yl)-acetamide]",> 66.7 µM,–
CC(=O)SCC(=O)N=c1sc2cc(F)ccc2n1C [MLS000091388],> 66.7 µM,–
COc1ccccc1-c1c(C)oc2cc(OC(=O)c3ccco3)ccc2c1=O [[3-(2-methoxyphenyl)-2-methyl-4-oxidanylidene-chromen-7-yl] furan-2-carboxylate],> 66.7 µM,–

Compound,IC50,Ki
COc1ccc(-c2nc(N3CCCC3)[nH]c(=O)c2C#N)cc1 [6-(4-methoxyphenyl)-4-oxidanylidene-2-pyrrolidin-1-yl-1H-pyrimidine-5-carbonitrile],> 66.7 µM,–
"COc1cc(C2C(C(=O)c3ccc4c(c3)CC(C)O4)C(=O)C(=O)N2CCCn2ccnc2)ccc1O (centres undefined) [(4E)-1-(3-imidazol-1-ylpropyl)-5-(3-methoxy-4-oxidanyl-phenyl)-4-[(2-methyl-2,3-dihydro-1-benzofuran-5-yl)-oxidanyl-methylidene]pyrrolidine-2,3-dione]",> 66.7 µM,> 40.3 µM
"COc1cc(C2C(C(=O)c3cccs3)C(=O)C(=O)N2Cc2ccco2)cc(OC)c1OC (centres undefined) [1-(2-furanylmethyl)-4-hydroxy-3-[oxo(thiophen-2-yl)methyl]-2-(3,4,5-trimethoxyphenyl)-2H-pyrrol-5-one]",> 66.7 µM,> 40.3 µM
Cc1ccc(NC(=O)C2CCCN2S(=O)(=O)c2cccc3cccnc23)cc1F (centres undefined) [MLS000119092],> 66.7 µM,–
"Cc1ccc(C2C(C(=O)c3ccc(Br)cc3)C(=O)C(=O)N2Cc2ccco2)o1 (centres undefined) [(4Z)-4-[(4-bromophenyl)-hydroxy-methylene]-1-(2-furfuryl)-5-(5-methyl-2-furyl)pyrrolidine-2,3-quinone]",> 66.7 µM,> 40.3 µM
"COc1ccc(-c2nc(-c3ccc(NC(=O)c4ccc(Br)o4)cc3)no2)cc1OC [5-bromanyl-N-[4-[5-(3,4-dimethoxyphenyl)-1,2,4-oxadiazol-3-yl]phenyl]furan-2-carboxamide]",> 66.7 µM,–
"O=C1C(=O)N(c2ncccn2)C(c2ccc(Cl)c(Cl)c2)C1C(=O)c1ccco1 (centres undefined) [2-(3,4-dichlorophenyl)-3-(furan-2-carbonyl)-4-hydroxy-1-pyrimidin-2-yl-2H-pyrrol-5-one]",> 66.7 µM,> 40.3 µM
"COc1ccc(NC(=O)C2C(=O)NC3(C)CC2c2ccccc2O3)cc1 (centres undefined) [N-(4-methoxyphenyl)-2-methyl-4-oxo-3,4,5,6-tetrahydro-2H-2,6-methano-1,3-benzoxazocine-5-carboxamide]",> 66.7 µM,–
"COc1ccc(C2C(C(=O)c3ccco3)C(=O)C(=O)N2CCc2ccccc2)cc1OC (centres undefined) [2-(3,4-dimethoxyphenyl)-3-(furan-2-carbonyl)-4-hydroxy-1-(2-phenylethyl)-2H-pyrrol-5-one]",> 66.7 µM,> 40.3 µM
"COc1ccc(-c2cc(C(F)(F)F)nc(N3CCN(c4ccccc4)CC3)n2)cc1OC [4-(3,4-dimethoxyphenyl)-2-(4-phenyl-1-piperazinyl)-6-(trifluoromethyl)pyrimidine]",> 66.7 µM,–
CC1(C)S[C@@H]2[C@H](NC(=O)C(C(=O)O)c3ccccc3)C(=O)N2[C@H]1C(=O)O (some centres undefined) [CARBENICILLIN DISODIUM SALT],> 66.7 µM,–
COc1ccccc1-n1c(CNC(=O)c2ccco2)nnc1SCC(=O)Nc1ccc(F)cc1 [SMR000021507],> 66.7 µM,–
Oc1cc(-c2ccccc2)nc(N2CCN(Cc3ccccc3)CC2)n1 [6-phenyl-2-[4-(phenylmethyl)-1-piperazinyl]-1H-pyrimidin-4-one],> 66.7 µM,–
CC(C)OC(=O)c1cc(NC(=O)C2C3CCC(O3)C2C(=O)O)cc(C(=O)OC(C)C)c1 (centres undefined),> 66.7 µM,–
O=C(NCC1CCCO1)c1ccc(NC(=O)C2CCCCC2C(=O)O)cc1 (centres undefined) [2-[[4-(oxolan-2-ylmethylcarbamoyl)phenyl]carbamoyl]cyclohexane-1-carboxylic acid],> 66.7 µM,–
CCOc1cc(C2C(C(=O)c3ccc(C)o3)C(=O)C(=O)N2CCc2ccccc2)ccc1O (centres undefined) [2-(3-ethoxy-4-hydroxyphenyl)-4-hydroxy-3-(5-methylfuran-2-carbonyl)-1-(2-phenylethyl)-2H-pyrrol-5-one],> 66.7 µM,> 40.3 µM
COC(=O)c1[nH]c(C)c(C(=O)C2C(=O)C(=O)N(CCN3CCOCC3)C2c2cccs2)c1C (centres undefined),> 66.7 µM,> 40.3 µM
"O=c1c(CC[S+]([O-])c2ccccc2)c(O)n(-c2ccccc2)n1-c1ccccc1 (centres undefined) [1,2-Diphenyl-3,5-dioxo-4-(2-phenylsulfinylethyl)pyrazolidine]",> 66.7 µM,> 40.3 µM
Cc1ccc(C(=O)C2C(=O)C(=O)N(CCCn3ccnc3)C2c2ccc(OC(C)C)cc2)o1 (centres undefined) [1-(3-imidazol-1-ylpropyl)-3-(5-methylfuran-2-yl)carbonyl-4-oxidanyl-2-(4-propan-2-yloxyphenyl)-2H-pyrrol-5-one],> 66.7 µM,> 40.3 µM
"COc1ccc(OC)c(C(=O)c2nc3c(n2O)CCCCC3)c1 [(2,5-dimethoxyphenyl)-(3-hydroxy-5,6,7,8-tetrahydro-4H-cyclohept[d]imidazol-2-yl)methanone]",> 66.7 µM,–

# Same assay, conditions: inactive by the depositor's call
row,Compound,IC50
1,"CNc1nn(-c2cccc(Cl)c2)nc1N [2-(3-chlorophenyl)-4-N-methyltriazole-4,5-diamine]",18.2 µM
2,CCOC(=O)N1CCN(c2cc(NCCC(=O)O)c3c4c(onc24)-c2ccccc2C3=O)CC1 [MLS000086406],49.9 µM
3,"CCOc1cc(C(=O)NCc2nnc(SCC(=O)OC)n2C)cc(OCC)c1OCC [2-[[4-methyl-5-[[(3,4,5-triethoxybenzoyl)amino]methyl]-1,2,4-triazol-3-yl]thio]acetic acid methyl ester]",18.5 µM
